IC50 data for 29 molecules are collected here from patent US11077100B2, “Tetrahydroquinoline derivatives as P2X7 receptor antagonists” (RaQualia Pharma Inc., priority 2017, dated 2021).

What is called IC50 is the point on the concentration scale where inhibition reaches its midpoint.

Test [1] concerns the target human P2X7 (Homo sapiens (Human), UniProt Q99572). Briefly: Human P2X7 functional assay (Ca2+ influx, Fluo-4, FDSS). It counts as cell-based. Conditions: antagonistic activity with respect to the human P2X7 receptor; BzATP final concentration 80 microM. In a few lines:
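Ca2+ influx was triggered with BzATP (80 μM final) after a 10-min room-temperature compound preincubation and monitored with Fluo-4 (ex 480/em 540 nm) on FDSS. The cells were HEK293 stably carrying FLAG-tagged human P2X7. Duplicate-averaged 7-point dose-responses gave IC50s.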

Test [2] deals with rat P2X7 (Rattus norvegicus (Rat), UniProt Q64663). Briefly: Rat P2X7 functional assay (Ca2+ influx, Fluo-4, FDSS). It is filed as cell-based. Particulars: HEK293 cells stably expressing rat P2X7; BzATP final 10 microM; 7-point dose-response; read-out: Antagonistic activities with respect to the rat P2X7 receptor (IC50). In a few lines: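 IC50 derived from 7-point dose-response in duplicate, measuring inhibition of BzATP-evoked (final 10 microM) intracellular Ca2+ increase by Fluo-4 fluorescence on FDSS. Rat P2X7-HEK293 cells were exposed to compound for 10 min in the dark beforehand.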

SMILES strings stand for the structures.

human P2X7, sequence (Q99572 whole entry): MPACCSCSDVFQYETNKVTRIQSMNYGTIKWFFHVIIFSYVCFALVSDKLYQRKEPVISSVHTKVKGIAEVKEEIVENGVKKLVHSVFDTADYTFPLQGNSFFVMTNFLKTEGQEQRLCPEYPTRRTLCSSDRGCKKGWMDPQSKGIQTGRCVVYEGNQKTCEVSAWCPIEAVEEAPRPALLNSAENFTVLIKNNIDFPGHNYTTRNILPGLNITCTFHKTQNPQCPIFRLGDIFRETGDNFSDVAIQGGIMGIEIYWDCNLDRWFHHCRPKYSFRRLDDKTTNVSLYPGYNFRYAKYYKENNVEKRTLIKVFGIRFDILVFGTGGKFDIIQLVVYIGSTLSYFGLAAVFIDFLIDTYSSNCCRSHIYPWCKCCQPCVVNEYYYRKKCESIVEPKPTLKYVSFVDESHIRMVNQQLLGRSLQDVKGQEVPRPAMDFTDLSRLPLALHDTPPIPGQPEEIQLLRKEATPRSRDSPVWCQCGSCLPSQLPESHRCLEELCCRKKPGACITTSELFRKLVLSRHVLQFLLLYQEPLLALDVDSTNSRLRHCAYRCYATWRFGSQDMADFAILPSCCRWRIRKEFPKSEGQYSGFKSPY
rat P2X7, sequence (Q64663 whole entry): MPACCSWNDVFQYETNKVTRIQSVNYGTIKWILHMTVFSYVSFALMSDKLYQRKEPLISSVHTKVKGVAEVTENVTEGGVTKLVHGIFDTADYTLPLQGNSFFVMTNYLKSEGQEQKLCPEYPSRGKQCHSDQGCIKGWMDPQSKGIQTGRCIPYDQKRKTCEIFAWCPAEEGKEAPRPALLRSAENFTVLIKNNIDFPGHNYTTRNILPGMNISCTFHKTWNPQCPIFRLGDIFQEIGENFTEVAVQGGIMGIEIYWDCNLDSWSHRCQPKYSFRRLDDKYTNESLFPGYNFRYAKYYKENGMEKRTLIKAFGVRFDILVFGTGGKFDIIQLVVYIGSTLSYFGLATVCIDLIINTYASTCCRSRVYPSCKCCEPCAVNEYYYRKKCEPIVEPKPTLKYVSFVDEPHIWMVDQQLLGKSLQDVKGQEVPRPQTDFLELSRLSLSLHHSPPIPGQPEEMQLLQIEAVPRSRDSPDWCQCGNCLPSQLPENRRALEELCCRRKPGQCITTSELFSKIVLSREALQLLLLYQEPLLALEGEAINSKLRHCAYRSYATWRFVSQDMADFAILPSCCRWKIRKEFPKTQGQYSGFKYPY

For `O=C(NCc1c(F)cc(F)cc1Cl)[C@]1(F)CC[C@H](O)c2ncccc21` [Example 176, (5S,8S)-N-(2-chloro-4,6-difluorobenzyl)-5-fluoro-8-hydroxy-5,6,7,8-tetrahydroquinoline-5-carboxamide], the IC50 in test [1] was below 50 nM; in test [2], below 1000 nM.
In the same order, the values of `O=C(NCc1ncc(Cl)cc1Cl)[C@]1(F)CC[C@H](O)c2ncccc21` [Example 177, (5S,8S)-N-((3,5-dichloropyridin-2-yl)methyl)-5-fluoro-8-hydroxy-5,6,7,8-tetrahydroquinoline-5-carboxamide] are below 50 nM and below 1000 nM.
In the same order, the values of `O=C(NCc1cccc(F)c1C(F)(F)F)[C@]1(F)CC[C@H](O)c2ncccc21` [Example 178, (58,8S)-5-fluoro-N-(3-fluoro-2-(trifluoromethyl)benzyl)-8-hydroxy-5,6,7,8-tetrahydroquinoline-5-carboxamide] are below 50 nM and below 1000 nM.
Consider `O=C(NCc1c(Cl)cccc1C(F)(F)F)[C@]1(F)CC[C@H](O)c2ncccc21` [Example 179, (5S,8S)-N-(2-chloro-6-(trifluoromethyl)benzyl)-5-fluoro-8-hydroxy-5,6,7,8-tetrahydroquinoline-5-carboxamide], for which the IC50 was below 50 nM in test [1] and below 1000 nM in test [2].
On the same counts, the results for `O=C(NCc1c(F)cc(F)cc1F)[C@]1(F)CC[C@H](O)c2ncccc21` [Example 180, (5S,8S)-5-fluoro-8-hydroxy-N-(2,4,6-trifluorobenzyl)-5,6,7,8-tetrahydroquinoline-5-carboxamide] are below 50 nM and below 1000 nM.
On the same counts, the results for `O=C(NCc1ccc(Br)cc1F)[C@]1(F)CC[C@H](O)c2ncccc21` [Example 182, (5S,8S)-N-(4-bromo-2-fluorobenzyl)-5-fluoro-8-hydroxy-5,6,7,8-tetrahydroquinoline-5-carboxamide] are below 50 nM and below 1000 nM.
On the same counts, the results for `O=C(NCc1ccc(Cl)c(F)c1F)[C@]1(F)CC[C@H](O)c2ncccc21` [Example 183, (5S,8S)-N-(4-chloro-2,3-difluorobenzyl)-5-fluoro-8-hydroxy-5,6,7,8-tetrahydroquinoline-5-carboxamide] are below 50 nM and below 1000 nM.
Consider `O=C(NCc1c(F)cc(Cl)cc1F)[C@]1(F)CC[C@H](O)c2ncccc21` [Example 184, (5S,8S)-N-(4-chloro-2,6-difluorobenzyl)-5-fluoro-8-hydroxy-5,6,7,8-tetrahydroquinoline-5-carboxamide], for which the IC50 was below 50 nM in test [1] and below 1000 nM in test [2].
Turning to `O=C(NCc1ccc(F)c(Cl)c1F)[C@]1(F)CC[C@H](O)c2ncccc21` [Example 185, (5S,8S)-N-(3-chloro-2,4-difluorobenzyl)-5-fluoro-8-hydroxy-5,6,7,8-tetrahydroquinoline-5-carboxamide], the values for the IC50 in test [1] and in test [2] were below 50 nM and below 1000 nM, respectively.
In the same order, the values of `O=C(N[C@@H]1CCCc2ccccc21)[C@]1(F)CC[C@H](O)c2ncccc21` [Example 189, (5S,8S)-5-fluoro-8-hydroxy-N-((R)-1,2,3,4-tetrahydronaphthalen-1-yl)-5,6,7,8-tetrahydroquinoline 5-carboxamide] are below 50 nM and below 1000 nM.
In the same order, the values of `O=C(NCc1cccc(Cl)c1F)[C@]1(F)CC[C@H](O)c2ncccc21` [Example 190, (5S,8S)-N-(3-chloro-2-fluorobenzyl)-5-fluoro-8-hydroxy-5,6,7,8-tetrahydroquinoline-5-carboxamide] are below 50 nM and below 1000 nM.
Consider `O=C(NCC1(N2CCOCC2)CCCCC1)[C@]1(F)CC[C@H](O)c2ncccc21` [Example 192, (5S,8S)-5-fluoro-8-hydroxy-N-((1-morpholinocyclohexyl)methyl)-5,6,7,8-tetrahydroquinoline-5-carboxamide], for which the IC50 in test [1] was below 50 nM; in test [2], below 1000 nM.
As for `O=C(NCc1c(F)ccc(Cl)c1F)[C@]1(F)CC[C@H](O)c2ncccc21` [Example 193, (5S,8S)-N-(3-chloro-2,6-difluorobenzyl)-5-fluoro-8-hydroxy-5,6,7,8-tetrahydroquinoline-5-carboxamide], the IC50 in test [1] was below 50 nM; in test [2], below 1000 nM.
On the same counts, the results for `O=C(NCc1ccccc1Cl)[C@]1(F)CC[C@H](O)c2ncccc21` [Example 195, (5S,8S)-N-(2-chlorobenzyl)-5-fluoro-8-hydroxy-5,6,7,8-tetrahydroquinoline-5-carboxamide] are below 50 nM and below 1000 nM.
In the same order, the values of `O=C(N[C@@H]1CCc2ccccc21)[C@]1(F)CC[C@H](O)c2ncccc21` [Example 196, (5S,8S)-N-((R)-2,3-dihydro-1H-inden-1-yl)-5-fluoro-8-hydroxy-5,6,7,8-tetrahydroquinoline-5-carboxamide] are below 50 nM and below 1000 nM.
On the same counts, the results for `O=C(NCc1ccccc1C(F)(F)F)[C@]1(F)CC[C@H](O)c2ncccc21` [Example 199, (5S,8S)-5-fluoro-8-hydroxy-N-(2-(trifluoromethyl)benzyl)-5,6,7,8-tetrahydroquinoline-5-carboxamide] are 50 to 100 nM and below 1000 nM.
`N#Cc1ccc(CNC(=O)[C@]2(F)CC[C@H](O)c3ncccc32)c(F)c1` [Example 201, (5S,8S)-N-(4-cyano-2-fluorobenzyl)-5-fluoro-8-hydroxy-5,6,7,8-tetrahydroquinoline-5-carboxamide]: the IC50 in test [1] is 50 to 100 nM; in test [2] it was below 1000 nM.
On the same counts, the results for `O=C(NCc1cc(F)cc(Cl)c1)[C@]1(F)CC[C@H](O)c2ncccc21` [Example 203, (5S,8S)-N-(3-chloro-5-fluorobenzyl)-5-fluoro-8-hydroxy-5,6,7,8-tetrahydroquinoline-5-carboxamide] are 50 to 100 nM and below 1000 nM.
On the same counts, the results for `O=C(NCc1cccc(Cl)c1)[C@]1(F)CC[C@H](O)c2ncccc21` [Example 205, (5S,8S)-N-(3-chlorobenzyl)-5-fluoro-8-hydroxy-5,6,7,8-tetrahydroquinoline-5-carboxamide] are 50 to 100 nM and below 1000 nM.
With `O=C(NCc1ccc(Cl)c(F)c1)[C@]1(F)CC[C@H](O)c2ncccc21` [Example 206, (5S,8S)-N-(4-chloro-3-fluorobenzyl)-5-fluoro-8-hydroxy-5,6,7,8-tetrahydroquinoline-5-carboxamide], the IC50 in test [1] is 101 to 300 nM; in test [2] it was below 1000 nM.
Take `O=C(NCc1cccc(F)c1F)[C@]1(F)CC[C@H](O)c2ncccc21` [Example 208, (5S,8S)-N-(2,3-difluorobenzyl)-5-fluoro-8-hydroxy-5,6,7,8-tetrahydroquinoline-5-carboxamide]: the IC50 in test [1] is 101 to 300 nM; in test [2], below 1000 nM.
In the same order, the values of `O=C(NCc1cc(F)cc(F)c1)[C@]1(F)CC[C@H](O)c2ncccc21` [Example 221, (5S,8S)-N-(3,5-difluorobenzyl)-5-fluoro-8-hydroxy-5,6,7,8-tetrahydroquinoline-5-carboxamide] are 301 to 1000 nM and below 1000 nM.
In the same order, the values of `O=C(NC1COc2cc(Cl)cc(Cl)c21)[C@]1(F)CC[C@H](O)c2ncccc21` (stereo partly drawn) [Example 229, (5S,8S)-N-(4,6-dichloro-2,3-dihydrobenzofuran-3-yl)-5-fluoro-8-hydroxy-5,6,7,8-tetrahydroquinoline-5-carboxamide] are below 50 nM and below 1000 nM.
On the same counts, the results for `O=C(NC1CCOc2cc(Cl)cc(Cl)c21)[C@]1(F)CC[C@H](O)c2ncccc21` (stereo partly drawn) [Example 230, (5S,8S)-N-(5,7-dichlorochroman-4-yl)-5-fluoro-8-hydroxy-5,6,7,8-tetrahydroquinoline-5-carboxamide] are below 50 nM and below 1000 nM.
Take `CC(NC(=O)[C@]1(F)CC[C@H](O)c2ncccc21)C12CC3CC(CC(C3)C1)C2` (stereo partly drawn) [Example 231, (5S,8S)-N-(1-(adamantan-1-yl)ethyl)-5-fluoro-8-hydroxy-5,6,7,8-tetrahydroquinoline-5-carboxamide]: the IC50 in test [1] was below 50 nM; in test [2] it was below 1000 nM.
On to `O=C(NCC(c1ccc(Cl)cc1)N1CCC(F)(F)CC1)[C@]1(F)CC[C@H](O)c2ncccc21` (stereo partly drawn) [Example 232, (5S,8S)-N-(2-(4-chlorophenyl)-2-(4,4-difluoropiperidin-1-yl)ethyl)-5-fluoro-8-hydroxy-5,6,7,8-tetrahydroquinoline-5-carboxamide], for which the IC50 in test [1] was below 50 nM; in test [2], below 1000 nM.
On the same counts, the results for `O=C(NC1COc2ccccc2C1)[C@]1(F)CC[C@H](O)c2ncccc21` (stereo partly drawn) [Example 233, (5S,8S)-N-(chroman-3-yl)-5-fluoro-8-hydroxy-5,6,7,8-tetrahydroquinoline-5-carboxamide] are 101 to 300 nM and below 1000 nM.
In the same order, the values of `CC(CNC(=O)[C@]1(F)CC[C@H](O)c2ncccc21)c1ccc(Cl)cc1` (stereo partly drawn) [Example 234, (5S,8S)-N-(2-(4-chlorophenyl)propyl)-5-fluoro-8-hydroxy-5,6,7,8-tetrahydroquinoline-5-carboxamide] are 301 to 1000 nM and below 1000 nM.
In the same order, the values of `C[C@@H](NC(=O)[C@]1(F)CC[C@H](O)c2ncccc21)c1ccc(F)cc1Cl` [Example 237, (5S,8S)-N-((R)-1-(2-chloro-4-fluorophenyl)ethyl)-5-fluoro-8-hydroxy-5,6,7,8-tetrahydroquinoline-5-carboxamide] are below 50 nM and below 1000 nM.
